Values of other authors in patent US20240024227A1, “CANNABIS PLANT DERIVED EXTRACELLULAR VESICLES AND THERAPEUTIC METHODS USING THE SAME” (UNIVERSITY OF FLORIDA RESEARCH FOUNDATION, INCORPORATED, priority 2020, published 2024).
Like-named read-outs stand apart in the source and are kept apart here.

Conditions: IP approximately 300 μg

Row | SMILES | CBDa brain Cmax (ethanol Tween-80 solution) | CBDa brain Cmax (vegetable oil) | time of CBDa brain Cmax (vegetable oil or Tween-80) | THCa levels in the brain
1 | C=C(C)[C@@H]1CCC(C)=C[C@H]1c1c(O)cc(CCCCC)c(C(=O)O)c1O [CBDa, Cannabidiolic acid] | 13.2 ng/mg | 2.0 ng/mg | 30 min | –
2 | CCCCCc1cc2c(c(O)c1C(=O)O)[C@@H]1C=C(C)CC[C@H]1C(C)(C)O2 [THCa, tetrahydrocannabinolic acid] | – | – | – | below detection
